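Interpolation was linear, between the two tested concentrations surrounding the appropriate level; five concentrations were tested over 48 hours in 96-well plates. GI50: concentration for 50% inhibition of growth. TGI: concentration producing complete growth inhibition.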
Experiments:
Test in all cases: DTP human tumour cell line panel, 48 h
DU-145 prostate = tested on: DU-145 prostate
UACC-62 melanoma = tested on: UACC-62 melanoma
MOLT-4 leukemia = tested on: MOLT-4 leukemia
SNB-19 CNS = tested on: SNB-19 CNS
MDA-MB-231 breast = tested on: MDA-MB-231 breast
COLO 205 colon = tested on: COLO 205 colon
A549 NSCLC = tested on: A549 NSCLC
SW-620 colon = tested on: SW-620 colon
MCF7 breast = tested on: MCF7 breast
HCC-2998 colon = tested on: HCC-2998 colon
TK-10 renal = tested on: TK-10 renal
SNB-75 CNS = tested on: SNB-75 CNS
BT-549 breast = tested on: BT-549 breast
UACC-257 melanoma = tested on: UACC-257 melanoma
HL-60(TB) leukemia = tested on: HL-60(TB) leukemia
RPMI-8226 leukemia = tested on: RPMI-8226 leukemia
CCRF-CEM leukemia = tested on: CCRF-CEM leukemia
SF-539 CNS = tested on: SF-539 CNS
HCT-116 colon = tested on: HCT-116 colon
HOP-92 NSCLC = tested on: HOP-92 NSCLC
SF-268 CNS = tested on: SF-268 CNS
OVCAR-4 ovarian = tested on: OVCAR-4 ovarian
MDA-MB-468 breast = tested on: MDA-MB-468 breast
NCI-H23 lung = tested on: NCI-H23 lung
OVCAR-3 ovarian = tested on: OVCAR-3 ovarian
786-0 renal = tested on: 786-0 renal
HOP-62 NSCLC = tested on: HOP-62 NSCLC
OVCAR-8 ovarian = tested on: OVCAR-8 ovarian
PC-3 prostate = tested on: PC-3 prostate
HT29 colon = tested on: HT29 colon
LOX IMVI melanoma = tested on: LOX IMVI melanoma
NCI-H522 lung = tested on: NCI-H522 lung
MALME-3M melanoma = tested on: MALME-3M melanoma
UO-31 renal = tested on: UO-31 renal
KM12 colon = tested on: KM12 colon
SF-295 CNS = tested on: SF-295 CNS
SR leukemia = tested on: SR leukemia
HCT-15 colon = tested on: HCT-15 colon
SK-MEL-28 melanoma = tested on: SK-MEL-28 melanoma
EKVX NSCLC = tested on: EKVX NSCLC
SK-MEL-2 melanoma = tested on: SK-MEL-2 melanoma
SK-MEL-5 melanoma = tested on: SK-MEL-5 melanoma
NCI-H460 lung = tested on: NCI-H460 lung
CAKI-1 renal = tested on: CAKI-1 renal
SK-OV-3 ovarian = tested on: SK-OV-3 ovarian
HS 578T breast = tested on: HS 578T breast
OVCAR-5 ovarian = tested on: OVCAR-5 ovarian
K-562 leukemia = tested on: K-562 leukemia
A498 renal = tested on: A498 renal
IGROV1 ovarian = tested on: IGROV1 ovarian
SN12C renal = tested on: SN12C renal
NCI-H226 lung = tested on: NCI-H226 lung
T-47D breast = tested on: T-47D breast
M14 melanoma = tested on: M14 melanoma
NCI/ADR-RES ovarian = tested on: NCI/ADR-RES ovarian
RXF 393 renal = tested on: RXF 393 renal
ACHN renal = tested on: ACHN renal
MDA-MB-435 = tested on: MDA-MB-435
U251 CNS = tested on: U251 CNS

O=C(CN1CCN(c2ncnc3c2cnn3-c2ccccc2)CC1)Nc1nncs1
GI50 (DU-145 prostate): 1.8 µM | TGI (DU-145 prostate): 3.24 µM | GI50 (UACC-62 melanoma): 4.97 µM | TGI (UACC-62 melanoma): 18.7 µM | GI50 (MOLT-4 leukemia): 4.08 µM | TGI (MOLT-4 leukemia): 31.3 µM | GI50 (SNB-19 CNS): 12.2 µM | TGI (SNB-19 CNS): 24.6 µM | GI50 (MDA-MB-231 breast): 1.78 µM | TGI (MDA-MB-231 breast): 3.87 µM | GI50 (COLO 205 colon): 14 µM | TGI (COLO 205 colon): 27 µM | GI50 (A549 NSCLC): 2.07 µM | TGI (A549 NSCLC): 4.31 µM | GI50 (SW-620 colon): 4.99 µM | TGI (SW-620 colon): 16.1 µM | GI50 (MCF7 breast): 4.32 µM | TGI (MCF7 breast): 18 µM | GI50 (HCC-2998 colon): 13.6 µM | TGI (HCC-2998 colon): 26.4 µM | GI50 (TK-10 renal): 3.09 µM | TGI (TK-10 renal): 6.14 µM | GI50 (SNB-75 CNS): 15.1 µM | TGI (SNB-75 CNS): 30.5 µM | GI50 (BT-549 breast): 1.55 µM | TGI (BT-549 breast): 3.02 µM | GI50 (UACC-257 melanoma): 14.1 µM | TGI (UACC-257 melanoma): 28.1 µM | GI50 (HL-60(TB) leukemia): 10.4 µM | TGI (HL-60(TB) leukemia): 39.5 µM | GI50 (RPMI-8226 leukemia): 2.83 µM | TGI (RPMI-8226 leukemia): 8.67 µM | GI50 (CCRF-CEM leukemia): 2.55 µM | TGI (CCRF-CEM leukemia): 7.17 µM | GI50 (SF-539 CNS): 1.76 µM | TGI (SF-539 CNS): 3.32 µM | GI50 (HCT-116 colon): 3.75 µM | TGI (HCT-116 colon): 14.5 µM | GI50 (HOP-92 NSCLC): 1.57 µM | TGI (HOP-92 NSCLC): 3.46 µM | GI50 (SF-268 CNS): 4.79 µM | TGI (SF-268 CNS): 19.3 µM | GI50 (OVCAR-4 ovarian): 10.3 µM | TGI (OVCAR-4 ovarian): 28.1 µM | GI50 (MDA-MB-468 breast): 3.05 µM | TGI (MDA-MB-468 breast): 13.7 µM | GI50 (NCI-H23 lung): 1.74 µM | TGI (NCI-H23 lung): 3.57 µM | GI50 (OVCAR-3 ovarian): 1.93 µM | TGI (OVCAR-3 ovarian): 3.67 µM | GI50 (786-0 renal): 1.99 µM | TGI (786-0 renal): 3.56 µM | GI50 (HOP-62 NSCLC): 1.62 µM | TGI (HOP-62 NSCLC): 3.29 µM | GI50 (OVCAR-8 ovarian): 1.93 µM | TGI (OVCAR-8 ovarian): 4.02 µM | GI50 (PC-3 prostate): 4.33 µM | TGI (PC-3 prostate): 17.1 µM | GI50 (HT29 colon): 6.91 µM | TGI (HT29 colon): 19.3 µM | GI50 (LOX IMVI melanoma): 1.49 µM | TGI (LOX IMVI melanoma): 2.81 µM | GI50 (NCI-H522 lung): 1.62 µM | TGI (NCI-H522 lung): 3.09 µM | GI50 (MALME-3M melanoma): 1.69 µM | TGI (MALME-3M melanoma): 3.3 µM | GI50 (UO-31 renal): 1.17 µM | TGI (UO-31 renal): 2.39 µM | GI50 (KM12 colon): 4.46 µM | TGI (KM12 colon): 15.9 µM | GI50 (SF-295 CNS): 10.3 µM | TGI (SF-295 CNS): 22.3 µM | GI50 (SR leukemia): 2.11 µM | TGI (SR leukemia): 5.26 µM | GI50 (HCT-15 colon): 1.79 µM | TGI (HCT-15 colon): 3.42 µM | GI50 (SK-MEL-28 melanoma): 13.9 µM | TGI (SK-MEL-28 melanoma): 26.9 µM | GI50 (EKVX NSCLC): 2.9 µM | TGI (EKVX NSCLC): 11.1 µM | GI50 (SK-MEL-2 melanoma): 12.6 µM | TGI (SK-MEL-2 melanoma): 25.8 µM | GI50 (SK-MEL-5 melanoma): 10.2 µM | TGI (SK-MEL-5 melanoma): 21.9 µM | GI50 (NCI-H460 lung): 4.25 µM | TGI (NCI-H460 lung): 14.7 µM | GI50 (CAKI-1 renal): 1.6 µM | TGI (CAKI-1 renal): 2.97 µM | GI50 (SK-OV-3 ovarian): 12.5 µM | TGI (SK-OV-3 ovarian): 25 µM | GI50 (HS 578T breast): 12.4 µM | TGI (HS 578T breast): 63 µM | GI50 (OVCAR-5 ovarian): 6.41 µM | TGI (OVCAR-5 ovarian): 19.3 µM | GI50 (K-562 leukemia): 7.91 µM | TGI (K-562 leukemia): 36.6 µM | GI50 (A498 renal): 18.4 µM | TGI (A498 renal): 35 µM | GI50 (IGROV1 ovarian): 2.68 µM | TGI (IGROV1 ovarian): 7.65 µM | GI50 (SN12C renal): 1.94 µM | TGI (SN12C renal): 5.06 µM | GI50 (NCI-H226 lung): 1.84 µM | TGI (NCI-H226 lung): 5.14 µM | GI50 (T-47D breast): 7.93 µM | TGI (T-47D breast): 24.1 µM | GI50 (M14 melanoma): 4.17 µM | TGI (M14 melanoma): 16.2 µM | GI50 (NCI/ADR-RES ovarian): 1.77 µM | TGI (NCI/ADR-RES ovarian): 3.69 µM | GI50 (RXF 393 renal): 1.68 µM | TGI (RXF 393 renal): 3.31 µM | GI50 (ACHN renal): 1.79 µM | TGI (ACHN renal): 3.18 µM | GI50 (MDA-MB-435): 13.6 µM | TGI (MDA-MB-435): 27.5 µM | GI50 (U251 CNS): 1.92 µM | TGI (U251 CNS): 3.99 µM

From PubChem BioAssay (NCI)
